# Experimental data as given in PMC10583824, “The rational design of ARUK2007145, a dual inhibitor of the α and γ isoforms of the lipid kinase phosphatidylinositol 5-phosphate 4-kinase (PI5P4K)” (RSC Medicinal Chemistry, 2023).
# Target: T1, PI5P4Kγ+ (Homo sapiens, UniProt Q8TBX8, D138G/D197E/E133P/E135D/E153T/E196G/G139A/N195G/S132L/S134N)
# T1 sequence (Q8TBX8 with tags, fused parts or gaps INS131LPN/S132D/E133S/S134Q/E135A/G136R/D138G/G139A/E153T/N195G/E196G/D197E): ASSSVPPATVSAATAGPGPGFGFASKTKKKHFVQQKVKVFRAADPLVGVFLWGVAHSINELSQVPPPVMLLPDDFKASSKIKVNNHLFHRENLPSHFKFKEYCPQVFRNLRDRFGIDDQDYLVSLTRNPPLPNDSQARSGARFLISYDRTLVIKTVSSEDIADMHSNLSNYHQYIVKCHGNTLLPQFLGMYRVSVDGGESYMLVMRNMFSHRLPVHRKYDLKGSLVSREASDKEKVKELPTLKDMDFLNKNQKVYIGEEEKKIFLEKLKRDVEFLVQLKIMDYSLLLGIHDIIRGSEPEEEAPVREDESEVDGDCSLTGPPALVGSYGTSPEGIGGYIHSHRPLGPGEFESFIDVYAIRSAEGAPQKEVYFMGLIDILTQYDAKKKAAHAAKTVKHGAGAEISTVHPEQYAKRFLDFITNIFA
# Assay: biochemical
# Details: ADP-Glo pIC50 PI5P4Kγ+, Table S1, two decimals; asterisk not explained
row,IC50 [nM],Structure (SMILES)
1,1350,Cc1ccc(Nc2ncnc3sc(-c4cccnc4C)cc23)cc1C [Compound 18]
2,52.5,CS(=O)(=O)c1ccc(Nc2ncnc3sc(-c4ccc(F)cc4)cc23)cc1
3,7940,Cc1cc(Cl)ccc1Nc1ncnc2sc(-c3cccnc3Cl)cc12 [Cc1cc(ccc1Nc1ncnc2sc(cc12)-c1cccnc1Cl)Cl]
4,389,CCc1ccc(Nc2ncnc3sc(-c4cccnc4C)cc23)cc1 [Compound 23]
5,631,COc1cnccc1-c1cc2c(Nc3ccc(C)c(C)c3)ncnc2s1
6,15.5,CS(=O)(=O)c1ccc(Nc2ncnc3sc(-c4cn[nH]c4)cc23)cc1 [Compound 7]
7,166,CS(=O)(=O)c1ccc(Nc2ncnc3sc(C(F)F)cc23)cc1
8,7410,COc1cnccc1-c1cc2c(Nc3ccc(C)cc3C)ncnc2s1 [COc1cnccc1-c1cc2c(ncnc2s1)Nc1ccc(cc1C)C]
9,28.8,COc1ncccc1-c1cc2c(Nc3ccc(S(C)(=O)=O)cc3)ncnc2s1
10,200,Cc1cc2c(Nc3ccc(N4CCCC4=O)c(C)c3)ncnc2s1 [Cc1cc2c(ncnc2s1)Nc1ccc(c(c1)C)N1CCCC1=O]
11,288,CCc1cc2c(Nc3ccc(N4CCCC4=O)c(C)c3)ncnc2s1 [CCc1cc2c(ncnc2s1)Nc1ccc(c(c1)C)N1CCCC1=O]

row,Structure (SMILES),IC50 [nM]
1,CCc1ccc(Nc2ncnc3sc(-c4cccnc4Cl)cc23)cc1 [CCc1ccc(cc1)Nc1ncnc2sc(cc12)-c1cccnc1Cl],151
2,Cc1ccc(Nc2ncnc3sc(-c4cccnc4Cl)cc23)cc1 [Cc1ccc(cc1)Nc1ncnc2sc(cc12)-c1cccnc1Cl],427
3,CSc1ccc(Nc2ncnc3sc(C)cc23)cc1 [CSc1ccc(cc1)Nc1ncnc2sc(cc12)C],178
4,CSc1ccc(Nc2ncnc3cc(-c4c(C)noc4C)sc23)cc1 [CSc1ccc(cc1)Nc1ncnc2cc(sc12)-c1c(noc1C)C],32.4

# Same assay, conditions: PI5P4Kγ+ pIC50, ADP-Glo; footnote a: inconsistent replicates, value shown is upper limit
row,IC50 [nM],Structure (SMILES)
1,100,Cc1ncccc1-c1cc2ncnc(Nc3ccc(S(F)(F)(F)(F)F)cc3)c2s1 [Compound 40]
2,50.1,Cc1csc2ncnc(Nc3ccc(S(C)(=O)=O)cc3)c12 [Compound 31]
3,31.6,CS(=O)(=O)c1ccc(Nc2ncnc3sc(-c4cccnc4F)cc23)cc1 [Compound 16]
4,50.1,CN(C(=O)c1csc2ncnc(Nc3ccc(S(C)(=O)=O)cc3)c12)c1ccccc1 [Compound 34]
5,50.1,CS(=O)(=O)c1ccc(Nc2ncnc3ccsc23)cc1 [Compound 36]
6,100,CS(=O)(=O)c1ccc(Nc2ncnc3scc(C4CC4)c23)cc1 [Compound 33]
7,1260,Cc1ccc(Nc2ncnc3sc(-c4cccnc4C)cc23)cc1C [Compound 18]
8,100,CS(=O)(=O)c1ccc(Nc2ncnc3sc(-c4ccncc4F)cc23)cc1 [Compound 12]
9,398,CCc1ccc(Nc2ncnc3sc(-c4cccnc4C)cc23)cc1 [Compound 23]
10,15.8,CS(=O)(=O)c1ccc(Nc2ncnc3sc(-c4cn[nH]c4)cc23)cc1 [Compound 7]
11,12600,"COc1ccc(-n2ncc3c(Nc4ccc(OC)c(Cl)c4)ncnc32)cc1 [Compound 4, reference compound]"

# Target: T2, PI5P4Kα (Homo sapiens, UniProt P48426)
# T2 sequence (P48426 1-406): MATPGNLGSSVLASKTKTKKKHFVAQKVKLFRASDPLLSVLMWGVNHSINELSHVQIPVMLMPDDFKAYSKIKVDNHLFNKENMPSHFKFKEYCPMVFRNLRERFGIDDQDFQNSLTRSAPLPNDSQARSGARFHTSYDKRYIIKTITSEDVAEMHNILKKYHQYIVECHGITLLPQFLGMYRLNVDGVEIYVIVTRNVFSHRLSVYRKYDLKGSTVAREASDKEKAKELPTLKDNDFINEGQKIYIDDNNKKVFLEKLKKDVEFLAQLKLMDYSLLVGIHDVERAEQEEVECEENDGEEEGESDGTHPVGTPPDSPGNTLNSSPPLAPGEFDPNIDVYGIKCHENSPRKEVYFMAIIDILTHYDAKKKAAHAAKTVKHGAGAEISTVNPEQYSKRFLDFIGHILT
# Assay: biochemical
# Details: ADP-Glo pIC50 PI5P4Kα, Table S1, two decimals; asterisk not explained
row,IC50 [nM],Structure (SMILES)
1,1480,CS(=O)(=O)c1ccc(Nc2ncnc3sc(-c4cccnc4F)cc23)cc1 [Compound 16]
2,9770,CS(=O)(=O)c1ccc(Nc2ncnc3sc(-c4ccc(F)cc4)cc23)cc1
3,5250,Cc1cc(Cl)ccc1Nc1ncnc2sc(-c3cccnc3Cl)cc12 [Cc1cc(ccc1Nc1ncnc2sc(cc12)-c1cccnc1Cl)Cl]
4,275,COc1cnccc1-c1cc2c(Nc3ccc(C)c(C)c3)ncnc2s1
5,8710,CS(=O)(=O)c1ccc(Nc2ncnc3sc(C(F)F)cc23)cc1
6,5010,COc1cnccc1-c1cc2c(Nc3ccc(C)cc3C)ncnc2s1 [COc1cnccc1-c1cc2c(ncnc2s1)Nc1ccc(cc1C)C]
7,2290,COc1ncccc1-c1cc2c(Nc3ccc(S(C)(=O)=O)cc3)ncnc2s1
8,5370,Cc1cc2c(Nc3ccc(N4CCCC4=O)c(C)c3)ncnc2s1 [Cc1cc2c(ncnc2s1)Nc1ccc(c(c1)C)N1CCCC1=O]
9,9770,CCc1cc2c(Nc3ccc(N4CCCC4=O)c(C)c3)ncnc2s1 [CCc1cc2c(ncnc2s1)Nc1ccc(c(c1)C)N1CCCC1=O]

row,Structure (SMILES),IC50 [nM]
1,Cc1c(C(=O)O)sc2ncnc(Nc3ccc(C(C)C)cc3)c12 [CC(C)c1ccc(cc1)Nc1ncnc2sc(c(c12)C)C(=O)O],2750
2,CC(=O)N(C)c1ccc(Nc2ncnc3sc(C)cc23)cc1 [CN(C(=O)C)c1ccc(cc1)Nc1ncnc2sc(cc12)C],1120
3,CCc1ccc(Nc2ncnc3sc(-c4cccnc4Cl)cc23)cc1 [CCc1ccc(cc1)Nc1ncnc2sc(cc12)-c1cccnc1Cl],324
4,Cc1ccc(Nc2ncnc3sc(-c4cccnc4Cl)cc23)cc1 [Cc1ccc(cc1)Nc1ncnc2sc(cc12)-c1cccnc1Cl],263
5,Cc1cc2c(Nc3ccc(Br)cc3)ncnc2s1 [Cc1cc2c(ncnc2s1)Nc1ccc(cc1)Br],6920
6,CSc1ccc(Nc2ncnc3sc(C)cc23)cc1 [CSc1ccc(cc1)Nc1ncnc2sc(cc12)C],2340
7,CSc1ccc(Nc2ncnc3cc(-c4c(C)noc4C)sc23)cc1 [CSc1ccc(cc1)Nc1ncnc2cc(sc12)-c1c(noc1C)C],22.4

# Same assay, conditions: PI5P4Kα pIC50, ADP-Glo; footnote a: inconsistent replicates, value shown is upper limit
row,IC50 [nM],Structure (SMILES)
1,≥ 1580,CS(=O)(=O)c1ccc(Nc2ncnc3sc(-c4cccnc4F)cc23)cc1 [Compound 16]

# Target: T2, PI5P4Kα
# Assay: not given
# Details: ADP-Glo
row,PI5P4Kα inhibition (in words),Structure (SMILES)
1,undetectable,CS(=O)(=O)c1ccc(Nc2ncnc3ccsc23)cc1 [Compound 36]

# Same assay, conditions: ADP-Glo; footnote a: inconsistent replicates, value shown is upper limit
row,PI5P4Kα pIC50,Structure (SMILES)
1,6.2,Cc1ncccc1-c1cc2ncnc(Nc3ccc(S(F)(F)(F)(F)F)cc3)c2s1 [Compound 40]
2,<4.3,Cc1csc2ncnc(Nc3ccc(S(C)(=O)=O)cc3)c12 [Compound 31]
3,5.6,CN(C(=O)c1csc2ncnc(Nc3ccc(S(C)(=O)=O)cc3)c12)c1ccccc1 [Compound 34]
4,<4.3,CS(=O)(=O)c1ccc(Nc2ncnc3ccsc23)cc1 [Compound 36]
5,<4.8,CS(=O)(=O)c1ccc(Nc2ncnc3scc(C4CC4)c23)cc1 [Compound 33]
6,6.5,Cc1ccc(Nc2ncnc3sc(-c4cccnc4C)cc23)cc1C [Compound 18]
7,<4.6,CS(=O)(=O)c1ccc(Nc2ncnc3sc(-c4ccncc4F)cc23)cc1 [Compound 12]
8,6.2,CCc1ccc(Nc2ncnc3sc(-c4cccnc4C)cc23)cc1 [Compound 23]
9,5.9,CS(=O)(=O)c1ccc(Nc2ncnc3sc(-c4cn[nH]c4)cc23)cc1 [Compound 7]

# Same assay, conditions: Table S1, two decimals; asterisk not explained
row,ADP-Glo pIC50 PI5P4Kα,Structure (SMILES)
1,6.48,Cc1ccc(Nc2ncnc3sc(-c4cccnc4C)cc23)cc1C [Compound 18]
2,6.22,CCc1ccc(Nc2ncnc3sc(-c4cccnc4C)cc23)cc1 [Compound 23]
3,5.88,CS(=O)(=O)c1ccc(Nc2ncnc3sc(-c4cn[nH]c4)cc23)cc1 [Compound 7]

# Test system: PI5P4Kγ+
# Assay: not given
# Details: ratio PI5P4Kα IC50 / PI5P4Kγ+ IC50, ADP-Glo
row,Fold-selectivity (α IC50/γ IC50),Structure (SMILES)
1,6.3,Cc1ncccc1-c1cc2ncnc(Nc3ccc(S(F)(F)(F)(F)F)cc3)c2s1 [Compound 40]
2,>980,Cc1csc2ncnc(Nc3ccc(S(C)(=O)=O)cc3)c12 [Compound 31]
3,50,CS(=O)(=O)c1ccc(Nc2ncnc3sc(-c4cccnc4F)cc23)cc1 [Compound 16]
4,50,CN(C(=O)c1csc2ncnc(Nc3ccc(S(C)(=O)=O)cc3)c12)c1ccccc1 [Compound 34]
5,0.25,Cc1ccc(Nc2ncnc3sc(-c4cccnc4C)cc23)cc1C [Compound 18]
6,>250,CS(=O)(=O)c1ccc(Nc2ncnc3sc(-c4ccncc4F)cc23)cc1 [Compound 12]
7,1.6,CCc1ccc(Nc2ncnc3sc(-c4cccnc4C)cc23)cc1 [Compound 23]
8,79,CS(=O)(=O)c1ccc(Nc2ncnc3sc(-c4cn[nH]c4)cc23)cc1 [Compound 7]
9,0.032,"COc1ccc(-n2ncc3c(Nc4ccc(OC)c(Cl)c4)ncnc32)cc1 [Compound 4, reference compound]"
